Measured values as given in patent publication US6737383B1, “Herbicidal oxadiazolidines” (priority 1999, dated 2004).

Experiments:
cocklebur = test: Test B pre/postemergence cocklebur; assay type: in vivo, Xanthium strumarium
How it was run: (§1)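 Response is a visual 0-to-10 score relative to untreated plants, where 0 means no effect and 10 means complete control, taken twelve to sixteen days after application. Treatments went onto soil at planting and onto foliage of 1- to 4-leaf plants, using a surfactant-containing non-phytotoxic solvent.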

smallflower flatsedge = test: Test B flood test smallflower flatsedge; assay type: in vivo, Cyperus difformis
How it was run: (§2)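 Plants were grown to the 2-leaf stage before treatment with test chemical, then held in a greenhouse for twelve to sixteen days. Injury was visually rated against untreated controls on a 0–10 scale, where 0 is no effect and 10 is complete control.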

corn = test: Test B pre/postemergence corn; assay type: in vivo, Zea mays
How it was run: as §1

rape = test: Test B pre/postemergence rape; assay type: in vivo, Brassica napus
How it was run: as §1

sugar beet = test: Test B pre/postemergence sugar beet; assay type: in vivo, Beta vulgaris
How it was run: as §1

bedstraw = test: Test B pre/postemergence bedstraw; assay type: in vivo, Galium aparine
How it was run: as §1

surinam grass = test: Test B pre/postemergence surinam grass; assay type: in vivo, Brachiaria decumbens
How it was run: as §1

rice = test: Test B flood test rice; assay type: in vivo, Oryza sativa
How it was run: as §2

soybean = test: Test B pre/postemergence soybean; assay type: in vivo, Glycine max
How it was run: as §1

wild oat = test: Test B pre/postemergence wild oat; assay type: in vivo, Avena fatua
How it was run: as §1

crabgrass = test: Test B pre/postemergence crabgrass; assay type: in vivo, Digitaria sanguinalis
How it was run: as §1

velvetleaf = test: Test B pre/postemergence velvetleaf; assay type: in vivo, Abutilon theophrasti
How it was run: as §1

bamyardgrass = test: Test B flood test barnyardgrass; assay type: in vivo, Echinochloa crus-galli
How it was run: as §2

blackgrass = test: Test B pre/postemergence blackgrass; assay type: in vivo, Alopecurus myosuroides
How it was run: as §1

duck salad = test: Test B flood test duck salad; assay type: in vivo, Heteranthera limosa
How it was run: as §2

purple nutsedge = test: Test B pre/postemergence purple nutsedge; assay type: in vivo, Cyperus rotundus
How it was run: as §1

wheat = test: Test B pre/postemergence wheat; assay type: in vivo, Triticum aestivum
How it was run: as §1

[1] = Preemergence, Rate 62 g/ha, scale of 0 to 10 where 0 is no effect and 10 is complete control
[2] = Preemergence, Rate 125 g/ha, 0 is no effect, 10 is complete control
[3] = Preemergence, Rate 250 g/ha, scale 0 to 10, 0 is no effect, 10 is complete control
[4] = Preemergence, Rate 500 g/ha, scale of 0 to 10 where 0 is no effect and 10 is complete control
[5] = Rate 62 g/ha, Postemergence, scale of 0 to 10 where 0 is no effect and 10 is complete control
[6] = Rate 125 g/ha, Postemergence, scale 0 to 10
[7] = Rate 500 g/ha, Postemergence, scale 0 to 10
[8] = Rate 62 g/ha, headed Pre-emergence (flood test species), scale 0 to 10 (0 no effect, 10 complete control)
[9] = Rate 125 g/ha, Pre-emergence, flood test species, scale 0 to 10 where 0 is no effect and 10 is complete control
[10] = Rate 250 g/ha, Pre-emergence, flood-test species, scale 0 to 10, 0 is no effect, 10 is complete control
[11] = Rate 500 g/ha, headed Pre-emergence (flood test species), scale 0 to 10 (0 no effect, 10 complete control)

CCC(CC)N(C(=O)n1oc(=O)n(-c2ccccc2C)c1=O)c1ccc(F)cc1 [Compound 193]
0: Cocklebur plant response rating (cocklebur; [1]) | Cocklebur plant response rating (0 to 10 scale) (cocklebur; [2]) | Cocklebur plant response rating (cocklebur; [3]) | Plant response rating, Cocklebur (cocklebur; [4]) | Cocklebur plant response rating (cocklebur; [5]) | Cocklebur plant response rating (cocklebur; [6]) | Plant response rating (0 to 10; 0 is no effect, 10 is complete control), Cocklebur (cocklebur; Rate 250 g/ha, Postemergence) | Cocklebur plant response rating (cocklebur; [7]) | S. Flatsedge plant response rating (smallflower flatsedge; [8]) | S. Flatsedge plant response rating (smallflower flatsedge; [9]) | S. Flatsedge plant response rating (smallflower flatsedge; [10]) | S. Flatsedge plant response rating (smallflower flatsedge; Rate 500 g/ha, Pre-emergence, flood test species, scale 0 to 10 (0 no effect, 10 complete control)) | Corn plant response rating (corn; [1]) | Corn plant response rating (0 to 10 scale) (corn; [2]) | Corn plant response rating (corn; [3]) | Plant response rating, Corn (corn; [4]) | Corn plant response rating (corn; [5]) | Corn plant response rating (corn; [6]) | Plant response rating (0 to 10; 0 is no effect, 10 is complete control), Corn (corn; Rate 250 g/ha, Postemergence) | Corn plant response rating (corn; [7]) | Rape plant response rating (rape; [1]) | Rape plant response rating (0 to 10 scale) (rape; [2]) | Rape plant response rating (rape; [3]) | Plant response rating, Rape (rape; [4]) | Rape plant response rating (rape; [5]) | Rape plant response rating (rape; [6]) | Plant response rating (0 to 10; 0 is no effect, 10 is complete control), Rape (rape; Rate 250 g/ha, Postemergence) | Rape plant response rating (rape; [7]) | Sugarbeets plant response rating (sugar beet; [1]) | Sugarbeets plant response rating (0 to 10 scale) (sugar beet; [2]) | Sugarbeets plant response rating (sugar beet; [3]) | Plant response rating, Sugarbeets (sugar beet; [4]) | Sugarbeets plant response rating (sugar beet; [5]) | Sugarbeets plant response rating (sugar beet; [6]) | Plant response rating (0 to 10; 0 is no effect, 10 is complete control), Sugarbeets (sugar beet; Rate 250 g/ha, Postemergence) | Sugarbeets plant response rating (sugar beet; [7]) | Bedstraw plant response rating (bedstraw; [1]) | Bedstraw plant response rating (0 to 10 scale) (bedstraw; [2]) | Bedstraw plant response rating (bedstraw; [3]) | Plant response rating, Bedstraw (bedstraw; [4]) | Bedstraw plant response rating (bedstraw; [5]) | Bedstraw plant response rating (bedstraw; [6]) | Plant response rating (0 to 10; 0 is no effect, 10 is complete control), Bedstraw (bedstraw; Rate 250 g/ha, Postemergence) | Bedstraw plant response rating (bedstraw; [7]) | B. signalgrass plant response rating (surinam grass; [1]) | B. signalgrass plant response rating (0 to 10 scale) (surinam grass; [2]) | B. signalgrass plant response rating (surinam grass; [3]) | Plant response rating, B. signalgrass (surinam grass; [4]) | B. signalgrass plant response rating (surinam grass; [5]) | B. signalgrass plant response rating (surinam grass; Rate 125 g/ha, Postemergence, scale 0 (no effect) to 10 (complete control)) | Plant response rating, B. signalgrass (surinam grass; Rate 250 g/ha, Postemergence, scale 0 to 10, 0 is no effect, 10 is complete control) | B. signalgrass plant response rating (surinam grass; Rate 500 g/ha, Postemergence, scale 0 to 10, 0 no effect, 10 complete control) | Rice plant response rating (rice; [8]) | Rice plant response rating (rice; [9]) | Rice plant response rating (rice; [10]) | Plant response rating, Rice (rice; [11]) | Soybean plant response rating (soybean; [1]) | Soybean plant response rating (0 to 10 scale) (soybean; [2]) | Soybean plant response rating (soybean; [3]) | Plant response rating, Soybean (soybean; [4]) | Soybean plant response rating (soybean; [5]) | Wild oats plant response rating (wild oat; [1]) | Wild oats plant response rating (wild oat; [3]) | Plant response rating, Wild oats (wild oat; [4]) | Wild oats plant response rating (wild oat; [5]) | Wild oats plant response rating (wild oat; [6]) | Plant response rating (0 to 10; 0 is no effect, 10 is complete control), Wild oats (wild oat; Rate 250 g/ha, Postemergence) | Crabgrass plant response rating (crabgrass; [5]) | Crabgrass plant response rating (crabgrass; [6]) | Plant response rating (0 to 10; 0 is no effect, 10 is complete control), Crabgrass (crabgrass; Rate 250 g/ha, Postemergence) | Crabgrass plant response rating (crabgrass; [7]) | Velvetleaf plant response rating (velvetleaf; [1]) | Velvetleaf plant response rating (velvetleaf; [3]) | Plant response rating, Velvetleaf (velvetleaf; [4]) | Velvetleaf plant response rating (velvetleaf; [5]) | Velvetleaf plant response rating (velvetleaf; [6]) | Plant response rating (0 to 10; 0 is no effect, 10 is complete control), Velvetleaf (velvetleaf; Rate 250 g/ha, Postemergence) | Barnyardgrass plant response rating (bamyardgrass; [8]) | Barnyardgrass plant response rating (bamyardgrass; [9]) | Barnyardgrass plant response rating (bamyardgrass; [10]) | Plant response rating, Barnyardgrass (bamyardgrass; [11]) | Blackgrass plant response rating (blackgrass; [1]) | Blackgrass plant response rating (0 to 10 scale) (blackgrass; [2]) | Blackgrass plant response rating (blackgrass; [3]) | Plant response rating, Blackgrass (blackgrass; [4]) | Blackgrass plant response rating (blackgrass; [5]) | Blackgrass plant response rating (blackgrass; [6]) | Plant response rating (0 to 10; 0 is no effect, 10 is complete control), Blackgrass (blackgrass; Rate 250 g/ha, Postemergence) | Blackgrass plant response rating (blackgrass; [7]) | Ducksalad plant response rating (duck salad; [8]) | Ducksalad plant response rating (duck salad; [9]) | Ducksalad plant response rating (duck salad; [10]) | Plant response rating, Ducksalad (duck salad; [11]) | Nutsedge plant response rating (purple nutsedge; [1]) | Nutsedge plant response rating (0 to 10 scale) (purple nutsedge; [2]) | Nutsedge plant response rating (purple nutsedge; [3]) | Plant response rating, Nutsedge (purple nutsedge; [4]) | Nutsedge plant response rating (purple nutsedge; [5]) | Nutsedge plant response rating (purple nutsedge; [6]) | Plant response rating (0 to 10; 0 is no effect, 10 is complete control), Nutsedge (purple nutsedge; Rate 250 g/ha, Postemergence) | Nutsedge plant response rating (purple nutsedge; [7]) | Wheat plant response rating (wheat; [1]) | Wheat plant response rating (wheat; [3]) | Plant response rating, Wheat (wheat; [4]) | Wheat plant response rating (wheat; [5]) | Wheat plant response rating (wheat; [6]) | Plant response rating (0 to 10; 0 is no effect, 10 is complete control), Wheat (wheat; Rate 250 g/ha, Postemergence)
1: Soybean plant response rating (soybean; [6]) | Plant response rating (0 to 10; 0 is no effect, 10 is complete control), Soybean (soybean; Rate 250 g/ha, Postemergence)
4: Crabgrass plant response rating (0 to 10 scale) (crabgrass; [2])
7: Plant response rating, Crabgrass (crabgrass; [4])
2: Soybean plant response rating (soybean; [7])
6: Crabgrass plant response rating (crabgrass; [3])
